Experimental data from patent US20180201647A1, “Peptoid” (The University of Durham, priority 2015, published 2018).
pIC50: −log10 of the molar value. Like-named read-outs stand apart in the source and are kept apart here. Where a SMILES comes first, the peptide text is derived from it. [ ]: non-standard residue; d: D form. Nspe = C[C@H](NCC(=O)O)c1ccccc1; NhArg = N=C(N)NCCCCNCC(=O)O; Nlys = NCCCCNCC(=O)O

Columns and labels:
Type in all cases: cell-based
[1] = system: Pseudomonas aeruginosa laboratory strain PAO2
Protocol: (§1) Species used in MIC assays included gram-negative Escherichia coli K12 W3110, Pseudomonas aeruginosa laboratory strain PAO2 and Serratia marcescens laboratory strain and gram-positive Staphylococcus aureus NCTC 6571 and Micrococcus luteus laboratory strain.
(§2) Bacterial cultures were prepared by streaking the bacterial strains on to agar plates with an inoculation loop and incubating overnight at 37° C. A single colony was then selected and placed in 5 mL of Iso-Sensitest broth using an inoculation loop and incubated at 37° C. with shaking overnight.
(§3) MIC values were attained according to the protocol described by J. M. Andrews et al. [J. M. Andrews, J. Antimicrob. Chemother., 2001, 48, 5-16] and were conducted in 96-well microtitre plates in triplicate. 10-50 μL of each overnight culture was inoculated into 1.2 mL of Iso-Sensitest broth and grown at 37° C. with shaking. […] The inoculum was diluted ten-fold with Iso-Sensitest broth before use (to ˜10^3 cfu/spot). Peptide solutions were initially dissolved in DMSO (5 mg mL^−1) and then diluted further with Iso-Sensitest broth to achieve a concentration range of 4 mgL^−1 to 512 mgL^−1 using 2-fold serial dilutions. Samples were vortexed between dilutions where necessary to aid dissolution. 50 μL of inoculum and 50 μL of peptide solution were added to each test well to achieve a final concentration range of 2 mgL^−1 to 256 mgL^−1. Separate dilutions of ampicillin and DMSO were made up in a similar manner to act as a positive antibacterial control and a +DMSO control, respectively. 50 μL of inoculum and 50 μL of Iso-Sensitest broth were used as a positive control and 100 μL of inoculum was used as a negative control. Positive and negatives controls were conducted multiple times in parallel per plate. […] Quantitative data were attained as A650nm values using a BioTek® Synergy™ H4 Hybrid Multi-Mode Microplate Reader.

[2] = system: Escherichia coli K12 W3110
Protocol: as §1, §2, §3

[3] = system: Staphylococcus aureus NCTC 6571
Protocol: as §1, §2, §3

[4] = system: Serratia marcescens laboratory strain; settings: 16 h
Protocol: as §1, §2, §3

[5] = system: Leishmania mexicana (M379); settings: for pIC50: parasite stage not given, read-out: IC50 L. mexicana; for active against L. mexicana: statement in words
Protocol: Leishmania mexicana (M379) promastigote parasites were maintained at 26° C. in Schneider's Insect medium (Sigma-Aldrich) supplemented with heat-inactivated foetal bovine sera (FBS, 15%; Biosera Ltd). Cells were counted using a Neubauer Improved Haemocytometer. Promastigotes were transformed into axenic amastigotes by a pH and temperature shift as previously described. A culture of recently transformed (three days) promastigotes in the late log phase was transferred into Schneider's Insect medium supplemented with 20% heat-inactivated FBS (pH 5.5) at 5×10^5 parasites/mL. After 6 days, the parasites were in the metacyclic stage and used for transformation to amastigote-like forms by transfer in the same medium at 32° C. at 5×10^5 parasites/mL. After additional 5-7 days, the parasites should be in the amastigote stage and be ready for cytotoxicity studies and infections.
Cytotoxicity analyses were performed in 96-well plates (Costar, Fisher Scientific) using Alamar Blue (Invitrogen) for cell viability detection as previously described.
Promastigote and amastigote L. mexicana were pre-incubated with the compounds in triplicate (5 mM stock solutions in DMSO; Amphotericin B was used as a positive control; untreated parasites with DMSO as a negative control) in 50 μl of the corresponding media at 4×106 mL-1 for 1 hour. Afterwards, 40 μl were removed from each well before the addition of 90 μl of the corresponding media, followed by incubation for 24 hours at 4×105 mL-1. Then, 10 μl Alamar Blue solution (Invitrogen) was added to each well for an incubation of 4 hours prior to assessing cell viability using a fluorescent plate reader (Biotek; Ex 560 nm/Em 600 nm). To investigate the effects of serum on the efficacy of the peptoids, the assay described above was modified using serum-free medium for the pre-incubation time. For these assays, the parasites were washed three times in serum-free medium before adding them to the compound solutions. All of the experiments described above were carried out on a minimum of two separate occasions to ensure a robust data set was collected.

[6] = system: T. cruzi Tulahuen strain C2C4; assay: microbe, parasite or virus in culture; settings: for pIC50: in L-6 cells, 96 h, read-out: IC50 T. cruzi; for active against T. cruzi: statement in words
Protocol: Rat skeletal myoblasts (L-6 cells) were seeded in 96-well microtitre plates at 2000 cells/well in 100 μL RPMI 1640 medium with 10% FBS and 2 mM 1-glutamine. After 24 h the medium was removed and replaced by 100 μl per well containing 5000 trypomastigote forms of T. cruzi Tulahuen strain C2C4 containing the β-galactosidase (Lac Z) gene. After 48 h the medium was removed from the wells and replaced by 100 μl fresh medium with or without a serial drug dilution of eleven 3-fold dilution steps covering a range from 100 to 0.002 μg/ml. After 96 h of incubation the plates were inspected under an inverted microscope to assure growth of the controls and sterility. Then the substrate CPRG/Nonidet (50 μl) was added to all wells. A color reaction developed within 2-6 h and could be read photometrically at 540 nm. Data were analyzed with the graphic programme Softmax Pro (Molecular Devices), which calculated IC50 values by linear regression from the sigmoidal dose inhibition curves. Benznidazole is used as control (IC50 0.5+0.2 μg/ml).

[7] = system: L. donovani strain MHOM/ET/67/L82 axenic amastigotes; settings: for active against L. donovani: statement in words; for pIC50: strain MHOM/ET/67/L82 axenic amastigotes, 70 h
Protocol: Amastigotes of L. donovani strain MHOM/ET/67/L82 were grown in axenic culture at 37° C. in SM medium^24 at pH 5.4 supplemented with 10% heat-inactivated fetal bovine serum under an atmosphere of 5% CO2 in air. One hundred microlitres of culture medium with 10^5 amastigotes from axenic culture with or without a serial drug dilution were seeded in 96-well microtitre plates. Serial drug dilutions of eleven 3-fold dilution steps covering a range from 90 to 0.002 μg/ml were prepared. After 70 h of incubation the plates were inspected under an inverted microscope to assure growth of the controls and sterile conditions. 10 μl of Alamar Blue (12.5 mg resazurin dissolved in 100 ml distilled water) were then added to each well and the plates incubated for another 2 h. Then the plates were read with a Spectramax Gemini XS microplate fluorometer (Molecular Devices Cooperation, Sunnyvale, Calif., USA) using an excitation wave length of 536 nm and an emission wave length of 588 nm. Data were analyzed using the software Softmax Pro (Molecular Devices Cooperation, Sunnyvale, Calif., USA). Decrease of fluorescence (=inhibition) was expressed as percentage of the fluorescence of control cultures and plotted against the drug concentrations. From the sigmoidal inhibition curves the IC50 values were calculated.

[8] = second figure of cell, 37° C., 16 h, Iso-Sensitest broth
[9] = second figure of cell, 37° C., Iso-Sensitest broth

Row | SMILES | MIC P. aeruginosa ([1]; laboratory strain PAO2, 16 h) [µM] | MIC P. aeruginosa [1, 8] [mgL^−1] | MIC E. coli ([2]; K12, 16 h) [µM] | MIC E. coli [2, 8] [mgL^−1] | MIC S. aureus ([3]; NCTC 6571, 16 h) [µM] | MIC S. aureus [3, 8] [mgL^−1] | MIC S. marcescens ([4]; laboratory strain) [µM] | MIC S. marcescens [4, 9] [mgL^−1] | pIC50 [5] | active against L. mexicana [5] | pIC50 [6] | active against T. cruzi [6] | active against L. donovani [7] | pIC50 [7]
1 | C[C@@H](c1ccccc1)N(CC(N)=O)C(=O)CN(C(=O)CN(CCCCN)C(=O)CN(C(=O)CN(C(=O)CN(CCCCNC(=N)N)C(=O)CN(C(=O)CN(C(=O)CN(CCCCN)C(=O)CN(C(=O)CN(C(=O)CNCCCCNC(=N)N)[C@@H](C)c1ccccc1)[C@@H](C)c1ccccc1)[C@@H](C)c1ccccc1)[C@@H](C)c1ccccc1)[C@@H](C)c1ccccc1)[C@@H](C)c1ccccc1)[C@@H](C)c1ccccc1 [Peptoid 4, [(NhArg-Nspe-Nspe)(NLys-Nspe-Nspe)]2] (H-[NhArg][Nspe][Nspe][Nlys][Nspe][Nspe][NhArg][Nspe][Nspe][Nlys][Nspe][Nspe]-NH2; N-terminus assumed) | 67 | 128 | 17 | 32 | 17 | 32 | > 134 | > 256 | 4.43 | active | 4.67 | active | active | 4.70
2 | C[C@@H](c1ccccc1)N(CC(N)=O)C(=O)CN(C(=O)CN(CCCCNC(=N)N)C(=O)CN(C(=O)CN(C(=O)CN(CCCCNC(=N)N)C(=O)CN(C(=O)CN(C(=O)CN(CCCCN)C(=O)CN(C(=O)CN(C(=O)CNCCCCN)[C@@H](C)c1ccccc1)[C@@H](C)c1ccccc1)[C@@H](C)c1ccccc1)[C@@H](C)c1ccccc1)[C@@H](C)c1ccccc1)[C@@H](C)c1ccccc1)[C@@H](C)c1ccccc1 [Peptoid 1, (NLys-Nspe-Nspe)2(NhArg-Nspe-Nspe)2] (H-[Nlys][Nspe][Nspe][Nlys][Nspe][Nspe][NhArg][Nspe][Nspe][NhArg][Nspe][Nspe]-NH2; N-terminus assumed) | 34 | 64 | 17 | 32 | 17 | 32 | 134 | 256 | 4.43 | active | 4.91 | active | active | 4.95
